ChEMBL document CHEMBL4665867, “Design and synthesis of analogues of the sphingosine-1-phosphate receptor 1 agonist IMMH001 with improved phosphorylation rate in human blood” (Bioorg Med Chem, 2020)

Assays:
Assay type in all cases: ADME, tissue-based
[1] = biological target: T1, Sphingosine kinase 1/2 (Rattus norvegicus, UniProt Q91V26+A6JB73); experiment: Prodrug conversion in rat blood assessed as SPHK1/SPHK2-mediated compound phosphorylation by measuring Km by LC-MS/MS analysis
[2] = biological target: T1, Sphingosine kinase 1/2; experiment: Prodrug conversion in rat blood assessed as SPHK1/SPHK2-mediated compound phosphorylation by measuring Vmax by LC-MS/MS analysis
[3] = biological target: T2, Sphingosine kinase 1/2 (Homo sapiens, UniProt Q9NRA0+Q9NYA1); experiment: Prodrug conversion in human blood assessed as SPHK1/SPHK2-mediated compound phosphorylation by measuring Km by LC-MS/MS analysis
[4] = biological target: T2, Sphingosine kinase 1/2; experiment: Prodrug conversion in human blood assessed as SPHK1/SPHK2-mediated compound phosphorylation by measuring Vmax by LC-MS/MS analysis
[5] = biological target: T1, Sphingosine kinase 1/2; experiment: Prodrug conversion in rat blood assessed as SPHK1/SPHK2-mediated compound phosphorylation by measuring intrinsic clearance by LC-MS/MS analysis
[6] = biological target: T2, Sphingosine kinase 1/2; experiment: Prodrug conversion in human blood assessed as SPHK1/SPHK2-mediated compound phosphorylation by measuring intrinsic clearance by LC-MS/MS analysis

| Compound | Km [1] | Vmax [2] | Km [3] | Vmax [4] | CL [5] | CL [6] |
| --- | --- | --- | --- | --- | --- | --- |
| CCCc1nc(-c2ccc(-c3ccc(CCC(N)(CO)CO)cc3)cc2)co1.Cl | 85.25 µM | 37.24 pmol/min | 42.62 µM | 0.53 pmol/min | 0.437 µL/min | 0.012 µL/min |
| CCCc1nc(-c2ccc(-c3ccc(CC[C@@](C)(N)CO)cc3)cc2)co1.Cl | 23.6 µM | 4.13 pmol/min | 86.55 µM | 2.15 pmol/min | 0.175 µL/min | 0.025 µL/min |
| CCCc1nc(-c2ccc(-c3ccc(CC[C@@H](N)CO)cc3)cc2)co1.Cl | 48.37 µM | 16.15 pmol/min | 54.12 µM | 2.63 pmol/min | 0.334 µL/min | 0.049 µL/min |
| CCCCCCCCc1ccc(CCC(N)(CO)CO)cc1.Cl [FINGOLIMOD HYDROCHLORIDE] | 64.6 µM | 61.3 pmol/min | 23.7 µM | 0.31 pmol/min | 0.95 µL/min | 0.013 µL/min |
